Results on ten compounds are retold here after ChEMBL document CHEMBL1201862, “PubChem BioAssay data set” (2004).

What all share (assay): growth of human tumour cells (NCI), 48 h
Test [1] deals with SR.
The test system of test [2] is OVCAR-3.
Test [3] has as its system UO-31.
Test [4] relates to COLO 205.
In test [5] the test system is RPMI-8226.
Test [6] relates to NCI-H522.
For test [7], the system named is SNB-19.
Test [8] relates to U-251.
The test system of test [9] is HCC 2998.
Test [10] concerns HOP-92.
The test system of test [11] is HCT-116.
Test [12] deals with ACHN.
The test system of test [13] is KM12.
The test system of test [14] is MCF7.
Test [15] concerns EKVX.
The test system of test [16] is OVCAR-4.
Test [17] has as its system NCI-H226.
In test [18] the test system is CCRF-CEM.
Test [19] deals with MDA-MB-231.
Test [20] has as its system NCI/ADR-RES.

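Briefly, cells in 96-well plates were exposed to five compound concentrations for 48 h, and endpoints were estimated by linear interpolation. GI50 = concentration required for 50% inhibition of growth.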 Activity calls are given as the source filed them. Cut-off read from the data, not from the text of the source: active = GI50 up to about 1.1 µM and inactive = higher. Bounds are passed on as bounds.

For `c1ccc(-c2cn3c(nc4ccccc43)c(-c3ccccc3)n2)cc1`, the GI50 in [1] was > 100 µM (inactive); in test [2], > 100 µM (inactive); in test [3], 37.7 µM (inactive); in test [4] it was > 100 µM (inactive); in test [5] it was > 100 µM (inactive); in test [6], 35.2 µM (inactive). Further, the GI50 in test [7] is 16.8 µM (inactive); in [8] it was 14.2 µM (inactive); in [9] it was > 100 µM (inactive); in [10], 16.9 µM (inactive); in test [11], > 86.9 µM (inactive); in test [12] it was > 100 µM (inactive). The GI50 was > 100 µM (inactive) in test [13]; 69.7 µM (inactive) in test [14]; > 100 µM (inactive) in [15]; 4.56 µM (inactive) in test [16]; > 60.8 µM (inactive) in [17]; > 100 µM (inactive) in test [18]. Moreover, the GI50 in test [19] was > 100 µM (inactive); in [20], 47.6 µM (inactive).

As to `Clc1cc(N/N=C(/c2ccccc2)c2ncccn2)ncn1`, the GI50 in test [1] is 30.2 µM (inactive); in test [2] it was 20.2 µM (inactive); in test [3] it was 19.5 µM (inactive); in [4], 4.29 µM (inactive); in test [5] it was 16.5 µM (inactive); in test [6], 2.56 µM (inactive). Also, the GI50 in test [7] was 60.7 µM (inactive); in [8], 31.8 µM (inactive); in [9], 70.3 µM (inactive); in [10], 14.7 µM (inactive); in test [11], 7.26 µM (inactive); in [12], 4.78 µM (inactive). Moreover, the GI50 was 43 µM (inactive) in test [13]; 14.8 µM (inactive) in [14]; 17 µM (inactive) in test [15]; 22.1 µM (inactive) in test [16]; 56.4 µM (inactive) in [17]; 4.53 µM (inactive) in test [18]. Moreover, the GI50 in test [19] is 20.2 µM (inactive); in test [20], 20.1 µM (inactive).

Take `COc1ccc(C(=O)c2sc(Nc3ccccc3)nc2N)cc1`: the GI50 in test [1] was 0.778 µM (active); in test [2], > 26.9 µM (inactive); in [3], 55.8 µM (inactive); in test [5] it was 3.72 µM (inactive); in test [6] it was 6.82 µM (inactive); in [7], 22.7 µM (inactive). In addition, the GI50 in test [8] was 12.7 µM (inactive); in [9], > 100 µM (inactive); in [10], 50.1 µM (inactive); in test [12], > 100 µM (inactive); in test [14], 4.9 µM (inactive); in [15], 60.5 µM (inactive). For the same compound, the GI50 in [16] is 10.7 µM (inactive); in test [17], > 100 µM (inactive); in test [18], 1.17 µM (inactive); in test [19], > 75.7 µM (inactive); in [20], > 100 µM (inactive).

On to `CCOC(=O)N/N=C/C1=NN(C(=O)OCC)[S+]([O-])C1C` (stereo not drawn), for which the GI50 in test [1], in test [2], in test [3], in [4], in [5] and in test [6] was > 100 µM (inactive) each time. The GI50 in [7], in test [8], in test [9], in test [10], in test [11] and in [12] was > 100 µM (inactive) each time. In addition, the GI50 in [13], in test [14], in [15], in [16], in test [17] and in test [18] was > 100 µM (inactive) in each case. Moreover, the GI50 in test [19] and in [20] was > 100 µM (inactive) throughout.

In the case of `CC(C)(Oc1ccc(Cl)cc1)C(=O)N(C(=O)N1CCN(c2ccccc2)CC1)c1ccccc1`, the GI50 in test [1] was 3.76 µM (inactive); in [2], 26.7 µM (inactive); in test [3] it was 11.7 µM (inactive); in [4], 6.49 µM (inactive); in test [6], 5.57 µM (inactive); in test [7] it was > 100 µM (inactive). The GI50 in [8] was 6.21 µM (inactive); in test [9], 92.5 µM (inactive); in test [10], > 100 µM (inactive); in [11] it was 4.06 µM (inactive); in test [12], 9.71 µM (inactive); in test [13], 6.22 µM (inactive). For the same compound, the GI50 in [14] was 8.59 µM (inactive); in test [15], 5.83 µM (inactive); in test [16], 8.49 µM (inactive); in [17], 8.09 µM (inactive); in test [18], 7.1 µM (inactive); in [19], > 100 µM (inactive). Further, in [20], the GI50 was 7.05 µM (inactive).

Take `N#Cc1c(-c2ccc(Cl)cc2)c(C#N)c(=O)n(NS(=O)(=O)c2ccccc2)c1S`: the GI50 in test [1] was 17 µM (inactive); in test [2] it was 23.1 µM (inactive); in test [3] it was 16.2 µM (inactive); in test [4] it was 30.5 µM (inactive); in test [5], 23.9 µM (inactive); in test [6], 18.2 µM (inactive). The GI50 in test [8] was 23.1 µM (inactive); in [9] it was > 10 µM (inactive); in [10], 44.7 µM (inactive); in [11], 25.5 µM (inactive); in test [12], 24.9 µM (inactive); in test [14], 32.6 µM (inactive). Also, the GI50 in test [15] is 32.6 µM (inactive); in test [16], 56.6 µM (inactive); in test [17] it was 30.3 µM (inactive); in test [18], 5.79 µM (inactive); in [19] it was 26.7 µM (inactive); in test [20], 21.2 µM (inactive).

With `NC1CC(N)c2c(Br)sc(Br)c21` (stereo not drawn), the GI50 was 59.4 µM (inactive) in [1]; > 100 µM (inactive) in test [2]; 41.4 µM (inactive) in test [3]; > 100 µM (inactive) in [4]; 44.1 µM (inactive) in test [6]; > 100 µM (inactive) in test [8]. The GI50 was 55.8 µM (inactive) in test [9]; 28.6 µM (inactive) in test [10]; 87.9 µM (inactive) in test [11]; > 100 µM (inactive) in test [12]; > 100 µM (inactive) in test [13]; > 100 µM (inactive) in test [14]. The GI50 in test [15] is > 100 µM (inactive); in [16], > 100 µM (inactive); in test [17], 77.1 µM (inactive); in [18], > 100 µM (inactive); in test [19], > 100 µM (inactive); in test [20], > 100 µM (inactive).

As for `CC(C)(C)OC(=O)N1CCC(C(=O)O)CC1`, the GI50 in test [1], in test [2], in test [3], in [4], in test [5] and in [6] was > 100 µM (inactive) in each case. Also, the GI50 in test [7], in test [8], in [9], in test [10], in test [11] and in [12] was > 100 µM (inactive) each time. Besides, the GI50 in [13], in [14], in test [15], in test [16], in test [18] and in [19] was > 100 µM (inactive) in each case. Also, in [20], the GI50 is > 100 µM (inactive).

`CCOC(=O)NC(Nc1cccc(C(F)(F)F)c1)(C(F)(F)F)C(F)(F)F`: the GI50 in test [1] is > 100 µM (inactive); in test [2], > 100 µM (inactive); in test [3], 93.8 µM (inactive); in test [4], > 100 µM (inactive); in test [5], > 100 µM (inactive); in test [6] it was > 100 µM (inactive). Besides, the GI50 in [7], in [8], in test [9], in test [10], in test [11] and in [12] was > 100 µM (inactive) throughout. Moreover, the GI50 in test [13], in [14], in test [15], in test [17], in test [18] and in test [19] was > 100 µM (inactive) in each case. For the same compound, the GI50 in [20] is > 100 µM (inactive).

In the case of `O=[N+]([O-])c1ccc(/C=N/n2c(S)nnc2CCc2nnc(S)n2/N=C/c2ccc([N+](=O)[O-])o2)o1`, the GI50 was 28.3 µM (inactive) in test [1]; 24.6 µM (inactive) in test [2]; 29.3 µM (inactive) in test [3]; 29.4 µM (inactive) in test [5]; 22.2 µM (inactive) in test [6]; 20 µM (inactive) in test [8]. Also, the GI50 is 17.6 µM (inactive) in [9]; 17.2 µM (inactive) in test [10]; 15.3 µM (inactive) in [11]; 23.1 µM (inactive) in [12]; 22.8 µM (inactive) in [13]; 18.1 µM (inactive) in [14]. Also, the GI50 was > 100 µM (inactive) in [15]; 19.3 µM (inactive) in [16]; > 100 µM (inactive) in [17]; 20 µM (inactive) in test [18]; 24.7 µM (inactive) in test [19]; 23.8 µM (inactive) in [20].
